From ChEMBL document CHEMBL1152766, “Bioactive constituents from the leaves of Clinacanthus nutans Lindau” (Bioorg Med Chem, 2009)

How the values were obtained:
[1] = test system: Human alphaherpesvirus 1; assay: Antiviral activity against 1000 PFU/ml infectious dose of HSV1 strain F infected in african green monkey Vero cells after 72 hrs by plaque reduction assay; assay type: functional, organism-based; conditions: Human alphaherpesvirus 1, strain F
[2] = test system: Human alphaherpesvirus 1; assay: Antiviral activity against 1000 PFU/ml infectious dose of HSV1 strain F infected in african green monkey Vero cells assessed as inhibition of virus in pre-viral entry step at 6.21 uM after 72 hrs by plaque reduction assay; assay type: functional; design: scale not given: the % may be the effect or the level left
[3] = test system: Human alphaherpesvirus 1; assay: Antiviral activity against 1000 PFU/ml infectious dose of HSV1 strain F infected in african green monkey Vero cells assessed as inhibition of virus in post-viral entry step at 6.21 uM after 72 hrs by plaque reduction assay; assay type: functional; design: scale not given: the % may be the effect or the level left
[4] = Cytotoxicity against african green monkey Vero cells after 72 hrs; assay type: cell-based; conditions: chlorocebus sabaeus, read-out: MNCC
[5] = test system: Human alphaherpesvirus 1; assay: Antiviral activity against 1000 PFU/ml infectious dose of HSV1 strain F infected in african green monkey Vero cells assessed as inhibition of virus in pre-viral entry step at 5.89 uM after 72 hrs by plaque reduction assay; assay type: functional; design: scale not given: the % may be the effect or the level left
[6] = test system: Human alphaherpesvirus 1; assay: Antiviral activity against 1000 PFU/ml infectious dose of HSV1 strain F infected in african green monkey Vero cells assessed as inhibition of virus in post-viral entry step at 5.89 uM after 72 hrs by plaque reduction assay; assay type: functional; design: scale not given: the % may be the effect or the level left

| SMILES | IC50 [1] [nM] | Activity [2] [%] | Activity [3] [%] | MNTC at 72 h [4] [µM] | Activity [5] [%] | Activity [6] [%] |
| --- | --- | --- | --- | --- | --- | --- |
| C=Cc1c(C)c2cc3nc(c4c5[nH]c(cc6nc(cc1[nH]2)C(C)=C6CC)c(C)c5C(=O)[C@]4(O)C(=O)OC)[C@@H](CCC(=O)O/C=C(\C)CCCC(C)CCCC(C)CCCC(C)C)[C@@H]3C (some centres not stated) | 3.11 | 100 | 30 | 6.21 | – | – |
| C=Cc1c(C)c2cc3nc(c4c5[nH]c(cc6nc(cc1[nH]2)C(C)=C6CC)c(C)c5C(=O)[C@@]4(O)C(=O)OC)[C@@H](CCC(=O)O/C=C(\C)CCCC(C)CCCC(C)CCCC(C)C)[C@@H]3C (some centres not stated) | 3.11 | 100 | 30 | 6.21 | – | – |
| C=Cc1c(C)c2cc3nc(c4c5[nH]c(cc6nc(cc1[nH]2)C(C=O)=C6CC)c(C)c5C(=O)[C@@]4(O)C(=O)OC)[C@@H](CCC(=O)O/C=C(\C)CCCC(C)CCCC(C)CCCC(C)C)[C@@H]3C (some centres not stated) [13(2)-HYDROXY-(13(2)-R)-PHAEOPHYTIN B] | 1.96 | – | – | 5.89 | 100 | 30 |
